{"source": "patent US20220117972A1", "about": "“USE OF PPAR-DELTA AGONISTS IN THE TREATMENT OF MITOCHONDRIAL MYOPATHY” (Reneo Pharmaceuticals, Inc., priority 2019, published 2022)", "assay_type_in_all_cases": "cell-based", "key": {"PPARδ": {"biological_target": "T1, PPARδ (UniProt I0FFS1)", "T1 construct": "This is inferred from the cell pool name 'UAS-bla-Gal4' and from the general description in b82 and b85", "T1 sequence (I0FFS1 1-441)": "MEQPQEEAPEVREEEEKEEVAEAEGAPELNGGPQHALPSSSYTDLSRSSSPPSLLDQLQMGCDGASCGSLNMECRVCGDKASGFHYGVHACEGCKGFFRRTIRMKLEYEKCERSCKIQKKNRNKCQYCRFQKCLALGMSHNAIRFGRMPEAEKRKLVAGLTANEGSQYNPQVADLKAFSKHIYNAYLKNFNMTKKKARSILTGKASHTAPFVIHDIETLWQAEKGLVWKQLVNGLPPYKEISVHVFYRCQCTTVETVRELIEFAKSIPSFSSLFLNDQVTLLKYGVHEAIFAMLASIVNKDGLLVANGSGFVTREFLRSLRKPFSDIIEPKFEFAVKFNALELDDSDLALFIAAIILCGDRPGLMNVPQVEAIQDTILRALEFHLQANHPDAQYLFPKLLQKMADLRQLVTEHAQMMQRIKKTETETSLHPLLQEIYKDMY", "assay": "PPAR receptor transactivation assay, monkey PPARδ"}, "LXRα": {"biological_target": "T2, LXRα (Homo sapiens, UniProt Q13133)", "T2 sequence (Q13133 1-447)": "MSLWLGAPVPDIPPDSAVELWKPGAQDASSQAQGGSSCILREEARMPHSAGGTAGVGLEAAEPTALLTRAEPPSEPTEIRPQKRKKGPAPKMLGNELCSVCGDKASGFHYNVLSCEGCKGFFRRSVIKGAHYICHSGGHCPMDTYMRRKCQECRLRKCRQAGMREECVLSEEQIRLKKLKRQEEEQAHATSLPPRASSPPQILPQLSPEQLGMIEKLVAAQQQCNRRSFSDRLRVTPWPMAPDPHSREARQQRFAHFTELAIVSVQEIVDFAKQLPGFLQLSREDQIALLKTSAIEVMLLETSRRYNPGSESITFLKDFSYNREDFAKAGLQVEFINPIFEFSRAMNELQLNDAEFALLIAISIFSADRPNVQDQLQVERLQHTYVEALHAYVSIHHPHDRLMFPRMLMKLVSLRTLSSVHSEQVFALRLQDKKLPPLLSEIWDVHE", "assay": "nuclear receptor LXRα activity"}, "hPPARα": {"biological_target": "T3, hPPARα (Homo sapiens, UniProt Q07869)", "T3 construct": "expressed in transfected cells; host or cells: Jump-In GripTite HEK293", "T3 sequence (Q07869 239-466 limits assumed)": "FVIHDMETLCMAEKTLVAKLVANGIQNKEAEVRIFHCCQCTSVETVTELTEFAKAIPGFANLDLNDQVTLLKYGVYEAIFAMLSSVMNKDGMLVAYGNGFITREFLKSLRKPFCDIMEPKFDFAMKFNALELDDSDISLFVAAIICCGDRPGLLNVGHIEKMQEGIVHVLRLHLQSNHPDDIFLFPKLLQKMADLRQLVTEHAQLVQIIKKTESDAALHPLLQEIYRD", "assay": "PPAR receptor transactivation assay, human PPARα", "experimental": "Compound 1 was tested on all three human PPAR subtypes (hPPAR): hPPARα, hPPARγ, and hPPARδ. All assays were repeated at least three times for each subtype.\nThe genes of interest were synthesized and cloned into an appropriate Jump-In™ retargeting vector following the User Guide of the Jump-In™ T-REx™ HEK293 Retargeting Kit (ThermoFisher Catalog No A15008). For example, the vector will be used to transfect and retarget the Jump-In™ HEK293 GripTite™ parental cell line. Stable pools will be antibiotic-selected for about 21 days and tested for target gene expression by functional assay.\nJump-In™ GripTite™ HEK293 parental cells were plated at 60-80% confluency in a T-75 flask in growth medium without antibiotics and transfected with a 1:1 ratio of expression construct and R4 integrase expression construct (20 μg DNA total) using Lipofectamine® LTX (50 μL) and PLUS™ Reagent (20 μL). Following a 48 hours incubation, cells were selected with 600 μg/mL Geneticin® and 10 μg/mL Blasticidin for ˜21 days in growth medium.\nJump-In™ GripTite™ HEK293 rPPAR Alpha, Delta or Gamma UAS-bla-Gal4 cell pools were plated in a 384-well plate format (20,000 cells per well) in OptiMeM without FBS in replicates (n=4). Cells were allowed to adhere for 8 hours before addition of Compound 1 (1 mM top concentration, 3-fold dilutions, 10-point titration). After 16 hours, the cells were loaded with LiveBLAzer®, a fluorescent BLA substrate that gives a blue/green readout of expressing/non-expressing cells, respectively. The blue/green readout was measured on a fluorescent plate reader (Tecan Safire II)."}, "FXR": {"biological_target": "T4, FXR (Homo sapiens, UniProt Q96RI1)", "T4 sequence (Q96RI1 1-486)": "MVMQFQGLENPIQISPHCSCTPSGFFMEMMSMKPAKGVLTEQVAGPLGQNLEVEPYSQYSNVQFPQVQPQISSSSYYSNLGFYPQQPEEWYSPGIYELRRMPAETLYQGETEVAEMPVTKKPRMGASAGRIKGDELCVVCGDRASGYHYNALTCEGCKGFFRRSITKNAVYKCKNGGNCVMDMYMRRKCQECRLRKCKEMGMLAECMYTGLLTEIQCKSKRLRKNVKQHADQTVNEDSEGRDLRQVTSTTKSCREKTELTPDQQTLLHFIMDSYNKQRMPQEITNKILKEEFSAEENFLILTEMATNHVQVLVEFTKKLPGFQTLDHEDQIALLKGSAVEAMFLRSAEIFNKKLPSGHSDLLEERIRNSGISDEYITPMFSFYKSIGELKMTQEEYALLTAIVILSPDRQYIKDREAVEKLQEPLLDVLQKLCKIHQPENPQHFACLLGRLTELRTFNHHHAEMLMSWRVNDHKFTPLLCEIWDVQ", "assay": "nuclear receptor FXR activity"}, "PPARα": {"biological_target": "T5, PPARα (UniProt Q4PNY3)", "T5 construct": "This is inferred from the cell pool name 'UAS-bla-Gal4' and from the general description in b82 and b85", "T5 sequence (Q4PNY3 1-467)": "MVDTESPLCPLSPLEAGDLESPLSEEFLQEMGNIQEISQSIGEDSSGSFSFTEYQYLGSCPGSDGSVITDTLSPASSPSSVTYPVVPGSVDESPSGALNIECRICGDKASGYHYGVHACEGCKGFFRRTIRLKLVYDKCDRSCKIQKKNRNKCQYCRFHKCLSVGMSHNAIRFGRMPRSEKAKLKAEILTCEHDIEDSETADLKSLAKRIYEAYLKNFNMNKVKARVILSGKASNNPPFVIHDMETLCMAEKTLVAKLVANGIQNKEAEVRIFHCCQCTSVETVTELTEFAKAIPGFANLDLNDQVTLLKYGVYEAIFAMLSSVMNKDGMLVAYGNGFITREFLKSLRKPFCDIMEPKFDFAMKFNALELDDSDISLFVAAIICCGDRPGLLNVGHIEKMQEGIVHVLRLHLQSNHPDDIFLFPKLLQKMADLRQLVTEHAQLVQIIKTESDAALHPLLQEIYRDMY", "assay": "PPAR receptor transactivation assay, monkey PPARα"}}, "note": "Read-outs that look alike come from different tables or passages of the source.", "data": [{"smiles": "Cc1cc(OC/C=C(/c2ccc(F)cc2)c2ccc(C#CCN3CCOCC3)cc2)ccc1OCC(=O)O", "note": "[Compound 1, (E)-[4-[3-(4-Fluorophenyl)-3-[4-[3-(morpholin-4-yl)propynyl]phenyl]allyloxy]-2-methyl-phenoxy]acetic acid]", "values": [{"measurement": "EC50", "setting": "PPARδ", "value": 6.6, "unit": "nM"}, {"measurement": "activity on the nuclear receptor LXRα", "setting": "LXRα", "value": "did not show any"}, {"measurement": "EC50", "setting": "hPPARα; Human PPARα, read-out: EC50 (nM) Mean", "value": "> 10000", "unit": "nM"}, {"measurement": "EC50", "setting": "hPPARα; human PPARα, Example 12, read-out: EC50", "value": "> 10000", "unit": "nM"}, {"measurement": "activity on PPARα in transactivation assays", "setting": "hPPARα; in some cases", "value": "negligible activity"}, {"measurement": "agonist type at PPARα", "setting": "hPPARα; in some cases", "value": "partial agonist"}, {"measurement": "activity on the nuclear receptor FXR", "setting": "FXR", "value": "did not show any"}, {"measurement": "EC50", "setting": "PPARα", "value": "> 1000", "unit": "nM"}]}]}
